The text below walks through data of patent US7776848B2, “Spirocyclic cyclohexane compounds” (Gruenenthal GmbH, priority 2004, dated 2010).

Structures can show the parent of a compound that is named as a salt.

The target in one assay is T1, human μ-opiate receptor (Homo sapiens, UniProt P35372).
T1 construct: purchased NEN, Zaventem, Belgium RB-HOM; host or cells: CHO-K1 cells (membrane preparation)
Kind of assay: Measurement of μ binding ([3H]-naloxone displacement, SPA, CHO-K1 membrane preparation). The note with it: 1.5 h; % inhibition of specific [3H]-naloxone binding at 1 μM test substance. The procedure:
c) Measurement of μ Binding
The receptor affinity for the human μ-opiate receptor was determined in a homogeneous batch on microtitre plates. To that end, serial dilutions of the substituted spirocyclic cyclohexane derivative to be tested were incubated for 90 minutes at room temperature with a receptor membrane preparation (15-40 μg of protein per 250 μl of incubation batch) of CHO-K1 cells, which express the human μ-opiate receptor (RB-HOM receptor membrane preparation from NEN, Zaventem, Belgium), in the presence of 1 nmol/l of the radioactive ligand [^3H]-naloxone (NET719, NEN, Zaventem, Belgium) and 1 mg of WGA-SPA beads (wheatgerm agglutinin SPA beads from Amersham/Pharmacia, Freiburg, Germany) in a total volume of 250 μl. The incubation buffer used was 50 mmol/l of Tris-HCl supplemented with 0.05 wt. % sodium azide and with 0.06 wt. % bovine serum albumin. In order to determine non-specific binding, 25 μmol/l of naloxone were additionally added. When the ninety-minute incubation time was complete, the microtitre plates were centrifuged off for 20 minutes at 1000 g and the radioactivity was measured in a β-counter (Microbeta-Trilux, PerkinElmer Wallac, Freiburg, Germany). The percentage displacement of the radioactive ligand from its binding to the human μ-opiate receptor at a concentration of the test substances of 1 μmol/l was determined and stated as the percentage inhibition (% inhibition) of specific binding. In some cases, on the basis of the percentage displacement by different concentrations of the compounds of formula I to be tested, IC50 inhibitory concentrations, which effect 50% displacement of the radioactive ligand, were calculated. Ki values for the test substances were obtained by conversion by means of the Cheng-Prusoff equation.

In assay [1] the target is T2, NA uptake (noradrenaline reuptake), synaptosomes from hypothalamus of male rat brains (Rattus norvegicus, UniProt Q63380).
T2 construct: synaptosomes are freshly isolated from areas of rat brain; from tissue; host or cells: synaptosomes (P2 fraction) from hypothalamus of male rat brains
Kind of assay: Noradrenaline reuptake inhibition (NA uptake inhibition) in rat brain synaptosomes. It is filed as biochemical. The procedure: b) Studies of Noradrenaline Reuptake Inhibition (NA Uptake Inhibition)
In order to be able to carry out these in vitro studies, synaptosomes are freshly isolated from areas of rat brain. A so-called “P2” fraction is used in each case, which is prepared according to the procedure of Gray and Whittaker (E. G. Gray and V. P. Whittaker (1962) J. Anat. 76, 79-88). For NA uptake, these vesicular particles are isolated from the hypothalamus of male rat brains. A detailed description of the method can be found in the literature (M. Ch. Frink, H.-H. Hennies, W. Englberger, M. Haurand and B. Wilffert (1996) Arzneim.-Forsch./Drug Res. 46 (III), 11, 1029-1036).

Assay [2] has as its target T3, 5HT uptake (serotonin reuptake), synaptosomes from hypothalamus of male rat brains (Rattus norvegicus, UniProt P31652).
T3 construct: synaptosomes are freshly isolated from areas of rat brain; from tissue; host or cells: synaptosomes (P2 fraction) from hypothalamus of male rat brains
Put plainly: Serotonin reuptake inhibition (5HT uptake inhibition) in rat brain synaptosomes. It counts as biochemical. The method, then: Biological Testing a) Studies of Serotonin Reuptake Inhibition (5HT Uptake Inhibition)
In order to be able to carry out these in vitro studies, synaptosomes are freshly isolated from areas of rat brain. A so-called “P2” fraction is used in each case, which is prepared according to the procedure of Gray and Whittaker (E. G. Gray and V. P. Whittaker (1962) J. Anat. 76, 79-88). For 5HT uptake, these vesicular particles are isolated from the hypothalamus of male rat brains. A detailed description of the method can be found in the literature (M. Ch. Frink, H.-H. Hennies, W. Englberger, M. Haurand and B. Wilffert (1996) Arzneim.-Forsch./Drug Res. 46 (III), 11, 1029-1036).

T2 sequence (Q63380 1-617): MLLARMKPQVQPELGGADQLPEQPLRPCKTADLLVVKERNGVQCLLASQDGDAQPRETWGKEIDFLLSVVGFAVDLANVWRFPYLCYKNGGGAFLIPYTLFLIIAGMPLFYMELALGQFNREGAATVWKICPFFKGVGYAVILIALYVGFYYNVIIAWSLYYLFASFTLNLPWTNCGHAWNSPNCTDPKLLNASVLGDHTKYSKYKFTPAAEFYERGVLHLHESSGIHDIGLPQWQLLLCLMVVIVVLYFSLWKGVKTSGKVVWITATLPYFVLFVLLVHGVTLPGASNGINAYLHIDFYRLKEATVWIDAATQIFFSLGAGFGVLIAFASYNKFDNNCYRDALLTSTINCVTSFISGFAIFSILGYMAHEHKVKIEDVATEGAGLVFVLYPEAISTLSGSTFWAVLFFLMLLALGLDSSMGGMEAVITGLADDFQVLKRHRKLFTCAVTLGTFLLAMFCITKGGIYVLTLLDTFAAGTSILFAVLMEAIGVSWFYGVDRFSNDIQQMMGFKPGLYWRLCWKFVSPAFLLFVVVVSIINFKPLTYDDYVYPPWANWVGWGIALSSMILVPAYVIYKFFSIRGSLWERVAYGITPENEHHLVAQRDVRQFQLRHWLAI
T1 sequence (P35372 whole entry): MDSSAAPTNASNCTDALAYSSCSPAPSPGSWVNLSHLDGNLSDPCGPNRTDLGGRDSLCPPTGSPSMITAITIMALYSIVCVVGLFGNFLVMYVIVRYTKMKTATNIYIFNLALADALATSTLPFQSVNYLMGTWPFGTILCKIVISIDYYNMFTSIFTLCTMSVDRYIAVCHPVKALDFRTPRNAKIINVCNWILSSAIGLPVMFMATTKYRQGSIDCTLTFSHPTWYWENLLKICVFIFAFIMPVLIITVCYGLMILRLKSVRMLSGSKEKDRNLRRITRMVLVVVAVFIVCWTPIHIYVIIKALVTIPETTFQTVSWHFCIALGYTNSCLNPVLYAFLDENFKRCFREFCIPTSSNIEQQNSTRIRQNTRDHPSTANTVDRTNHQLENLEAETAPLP
T3 sequence (P31652 whole entry): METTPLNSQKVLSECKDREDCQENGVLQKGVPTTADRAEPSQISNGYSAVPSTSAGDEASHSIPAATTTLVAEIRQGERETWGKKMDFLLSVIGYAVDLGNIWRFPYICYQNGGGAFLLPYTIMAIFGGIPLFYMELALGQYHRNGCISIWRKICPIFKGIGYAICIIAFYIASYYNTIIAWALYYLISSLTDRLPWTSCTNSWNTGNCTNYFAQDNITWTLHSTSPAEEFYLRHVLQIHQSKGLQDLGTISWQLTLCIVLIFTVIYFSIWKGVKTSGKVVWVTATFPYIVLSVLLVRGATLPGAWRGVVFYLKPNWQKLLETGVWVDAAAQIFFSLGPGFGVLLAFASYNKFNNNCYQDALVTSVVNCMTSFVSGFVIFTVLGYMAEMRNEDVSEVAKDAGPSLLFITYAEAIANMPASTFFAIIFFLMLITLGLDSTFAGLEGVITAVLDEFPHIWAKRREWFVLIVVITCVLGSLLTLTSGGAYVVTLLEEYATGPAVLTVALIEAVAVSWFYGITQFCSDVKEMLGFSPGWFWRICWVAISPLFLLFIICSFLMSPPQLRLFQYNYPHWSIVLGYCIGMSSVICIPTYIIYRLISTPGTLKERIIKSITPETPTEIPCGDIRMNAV

Regarding `COc1cccc(C2(O)CCC3(CC2CN(C)C)NCCc2c3[nH]c3ccccc23)c1` (stereo not drawn) [Example 1, 1,1-(2-(Dimethylaminomethyl)-3-hydroxy-3-(3-methoxyphenyl)pentamethylene)-3,4-dihydro-1H-2,9-diazafluorene dihydrochloride], at 1 µM the inhibition at human μ-opiate receptor was 40%. The results for the inhibition at 10 µM in assay [1] and in assay [2] were 43% and 44%, respectively.

`COc1cccc(C2(O)CCC3(CC2CN(C)C)c2[nH]c4ccccc4c2CCN3C(C)=O)c1` (stereo not drawn) [Example 2, 1,1-(2-(Dimethylaminomethyl)-3-hydroxy-3-(3-methoxyphenyl)pentamethylene)-2-acetyl-3,4-dihydro-1H-2,9-diazafluorene hydrochloride] yielded an inhibition at 1 µM on human μ-opiate receptor of 65%.

Regarding `CN(C)CC1CC2(CCC1(O)c1ccccc1)OCCc1c2[nH]c2ccccc12` (stereo not drawn) [Example 4, 1,1-(2-(Dimethylaminomethyl)-3-hydroxy-3-phenyl-pentamethylene)-1,3,4,9-tetrahydro-pyrano[3,4-b]indole sesquicitrate], at 1 µM the inhibition on human μ-opiate receptor was 74%. The inhibition at 10 µM in assay [2] was 84%.

As for `CN(C)CC1CC2(CCC1(O)c1ccccc1)OCCc1c2oc2ccccc12` (stereo not drawn) [Example 5, 1,1-(2-(Dimethylaminomethyl)-3-hydroxy-3-phenyl-pentamethylene)-1,3,4,9-tetrahydro-pyrano[3,4-b]benzofuran citrate], at human μ-opiate receptor, the inhibition at 1 µM was determined as 58%. In addition, the inhibition at 10 µM was 51% in assay [1] and 84% in assay [2].

`CN(C)CC1CC2(CCC1(O)c1cccc(F)c1)OCCc1c2oc2ccccc12` (stereo not drawn) [Example 8, 1,1-(2-(Dimethylaminomethyl)-3-hydroxy-3-(3-fluorophenyl)-pentamethylene)-1,3,4,9-tetrahydro-pyrano[3,4-b]benzofuran citrate] yielded an inhibition at 1 µM at human μ-opiate receptor of 73%. Also, the results for the inhibition at 10 µM in assay [1] and in assay [2] were 66% and 88%, respectively.

Consider `Cc1ccccc1C1(O)CCC2(CC1CN(C)C)OCCc1c2oc2ccccc12` (stereo not drawn) [Example 12, 1,1-(2-(Dimethylaminomethyl)-3-hydroxy-3-(2-methylphenyl)-pentamethylene)-1,3,4,9-tetrahydro-pyrano[3,4-b]benzofuran citrate], for which, on human μ-opiate receptor, the inhibition at 1 µM is 56%. Further, the inhibition at 10 µM in assay [1] is 41%; in assay [2] it was 68%.

With `CN(C)CC1CC2(CCC1(O)c1cccc(F)c1)OCCc1c2[nH]c2ccccc12` (stereo not drawn) [Example 27, 1,1-(2-(Dimethylaminomethyl)-3-hydroxy-3-(3-fluorophenyl)-pentamethylene)-1,3,4,9-tetrahydro-pyrano[3,4-b]indole hydrochloride], the inhibition at 1 µM on human μ-opiate receptor amounted to 64%. Moreover, 10 µM produced 83% inhibition in assay [2].

On human μ-opiate receptor, `CN(C)CC1CC2(CCC1(O)c1ccccc1)NCCc1c2[nH]c2ccccc12` (stereo not drawn) [Example 28, 1,1-(2-(Dimethylaminomethyl)-3-hydroxy-3-phenyl-pentamethylene)-3,4-dihydro-1H-2,9-diazafluorene citrate] had an inhibition at 1 µM of 57%.

In turn, `CSc1ccc(C2(O)CCC3(CC2CN(C)C)NCCc2c3[nH]c3cc(F)ccc23)cc1` (stereo not drawn) [Example 34, 1,1-(2-(Dimethylaminomethyl)-3-hydroxy-3-(4-methylthiophenyl)-pentamethylene)-7-fluoro-3,4-dihydro-1H-2,9-diazafluorene citrate] registered an inhibition at 1 µM at human μ-opiate receptor of 54%. The inhibition at 10 µM turned out to be 57% in assay [1] and 65% in assay [2].

For orientation: inhibition means how much of the control response was suppressed. Lower therefore signals a weak effect.
